Test results published in patent US20110190373A1, “METHODS AND COMPOSITIONS FOR THE TREATMENT OR PREVENTION OF PATHOLOGICAL CARDIAC REMODELING AND HEART FAILURE” (UNIVERSITY OF ROCHESTER, priority 2008, published 2011).
“Also recorded” adds a separate entry of the source.

How the values were obtained:
[1] = test system: rat neonatal cardiomyocytes; assay: PE-induced cardiomyocyte hypertrophy, myocyte (cell) surface area; assay type: cell-based; settings: NRVM
Description: (§1) FIGS. 3A-C show the effects of PDE1 inhibitors on pathological cardiomyocyte hypertrophy. Myocyte hypertrophy was induced in NRVM by α-adrenergic agonist, phenylephrine (PE). Hypertrophy was assessed by protein synthesis by measuring [^3H]-leucine incorporation (normalized to the total DNA content), or by myocyte surface area. PDE inhibitor 8-MM-IBMX (at 10 μM the concentration selective to PDE1) blocked PE-induced cardiomyocyte protein synthesis measured by [^3H]-leucine incorporation (FIG. 3A) or measured by myocyte surface area (FIG. 3B).
Effects of PDE1 inhibitor 8-MM-IBMX on PE-stimulated cell hypertrophic growth were measured by cell surface area (FIG. 3B). Rat neonatal cardiomyocytes were treated with either […] or vehicle, followed without (ctrl) or with PE stimulation. Cells were stained for α-actinin (a cardiomyocyte specific marker) to exclude the contamination of cardiac fibroblasts. At lease 100 α-actinin positive cells were analyzed. Cell surface area was measured by Image J program.
Effects of PDE1 inhibitor vinpocetine on PE-stimulated cell hypertrophic growth were measured by cell surface area (FIG. 3C). Rat neonatal cardiomyocytes were treated with either 20 μM Vinpocetine (vinp) or vehicle, followed without (ctrl) or with PE stimulation. Cell surface area was measured as above. Data were normalized to control (vehicle, without PE) that was arbitrarily set to 1.0. Data are means of at least 100 cells (mean±SD). […]
(§2) FIG. 4A illustrates a representative Western blot showing PDE1A protein expression in neonatal cardiomyocytes either not transfected (NT), or transfected with off-targeting control siRNA (1 μg) or rat PDE1A siRNA (0.5 or 1.0 μg) for 72 hours via electroporation. […] Protein synthesis assessed by [^3H]-leucine incorporation (normalized to the total DNA content) in NRVM transfected with 1 μg of control siRNA or PDE1A siRNA followed by PE (50 μmol/L) or vehicle (ctrl) stimulation for 48 hours (FIG. 4B). […] Data were quantified by densitometry in a linear range and normalized to GAPDH mRNA levels. […]

[2] = test system: rat neonatal cardiomyocytes; assay: PE-induced cardiomyocyte hypertrophy, protein synthesis by [3H]-leucine incorporation; assay type: cell-based; settings: NRVM
Description: as §1
Rat neonatal cardiomyocytes were cultured in serum-free medium for 24 hours. […] Cells were lysed and ^3H-leucine incorporation in cell lysates were then measured by scintillation counter. […]
as §2

[3] = therapeutic doses, patients; cited from earlier work
[4] = test system: mouse cardiac hypertrophy; assay: Cardiac hypertrophy induced by chronic ISO infusion in mice; assay type: in vivo; settings: i.p. 10 mg/kg/d, ISO 30 mg/kg/d for 7 days
Description: FIGS. 5A-F illustrate that Vinpocetine attenuates cardiac hypertrophy in vivo. C57 mice received continuous vehicle (0.002% ascorbic acid in PBS) or ISO (30 mg/kg/d) infusion via osmotic pumps for 7 days, and also received daily DMSO or Vinpocetine treatment (i.p. 10 mg/kg/d). Control group (Con): mice receiving only vehicle infusion for 7 days. ISO group: mice receiving ISO infusion and DMSO treatment for 7 days. ISO+Vinp group: mice receiving ISO infusion and vinpocetine treatment for 7 days. After 7 days, animals were sacrificed and hearts were excised, weighed, frozen in −80° C. for mRNA assay, or fixed in 10% formalin for histology analysis. FIG. 5A are representative gross heart images showing effects of PDE1 inhibitor on cardiac hypertrophy. FIGS. 5B-C are graphs showing the effect of Vinpocetine on heart to body weight ratio or heart weight to tibial length ratio, respectively. […] FIGS. 5E-F are graphs showing the effect of Vinpocetine on ANP and BNP mRNA expression, respectively. Total RNA from left ventricles were subjected to real-time RT-PCR analyses for the mRNA levels of ANP and BNP. Data were normalized to control and sham samples that were arbitrarily set to 1.0. Data represent mean of 4 animals (mean±SEM). **P<0.01 vs. control mice. ##P<0.01 vs. ISO-infused mice without Vinpocetine. […] PDE1 is a well known biological target for Vinpocetine. […] Based on these reasons, the effects of Vinpocetine were tested on cardiomyocyte hypertrophy in vivo.

[5] = 20 μM, α-actinin positive cells

Row | Structure (SMILES) | PE-induced hypertrophy measured by myocyte surface area ([1]; 10 μM (figure legend)) | PE-induced hypertrophy measured by myocyte surface area [1, 5] | PE-induced cardiomyocyte protein synthesis measured by [3H]-leucine incorporation ([2]; 10 μM (figure legend)) | PE-induced hypertrophy assessed by protein synthesis with 3H-leucine incorporation ([2]; 20 μmol/L, PE 48 hours, normalized to DNA content) | side effects, toxicity or contraindications [3] | ISO-induced increase in cross-section areas of cardiomyocytes in left ventricles ([4]; H&E staining) | cardiac hypertrophy measured by gross heart morphology ([4]; mouse) | heart weight/body weight (HW/BW) ratio ([4]; mouse) | heart weight/tibia length (HW/TL) ratio ([4]; mouse) | ANP mRNA level in left ventricle ([4]; real-time RT-PCR) | BNP mRNA level in left ventricle ([4]; real-time RT-PCR)
1 | COCc1nc2c([nH]1)c(=O)n(C)c(=O)n2CC(C)C [8-MM-IBMX, 8-methoxymethyl-isobutylmethylxanthine] | blocked | significantly attenuated | blocked | significantly attenuated | – | – | – | – | – | – | –
2 | CCOC(=O)C1=C[C@]2(CC)CCCN3CCc4c(n1c1ccccc41)[C@@H]32 [Vinpocetine, (+)-vinpocetine] | – | significantly reduced; also recorded: significantly blocked | – | – | no reports of significant side effects, toxicity or contraindications | significantly attenuated | significantly reduced | significantly reduced | significantly reduced | significantly decreased | significantly decreased
